Measurements from patent US20240317721A1, “PYRAZOLYL DERIVATIVES AS INHIBITORS OF THE KRAS MUTANT PROTEIN” (NOVARTIS AG, priority 2021, published 2024).

Target: KRasG12C (M1-K169, biotinylated on the N-terminus) (Homo sapiens (Human), UniProt P01116, G12C)
Assay: Covalent competition assay: scintillation proximity assay (SPA) quantifying covalent modification of KRASG12C
Format: binding
Details: competition with radiolabeled covalent probe (Compound B/Compound A), 2 hours incubation, 10 nM KRasG12C
Outline: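 Test compounds compete with a radiolabeled covalent probe for modification of N-terminally biotinylated KRasG12C(M1-K169):GDP, final 10 nM protein, 25 nM radio-ligand, 475 nM unlabelled ligand, 2 h with agitation in 20 mM Tris-HCl pH 7.5, 150 mM NaCl, 0.1 mM MgCl2, 0.01% Tween-20.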

Row | Structure (SMILES) | IC50 [µM]
1 | C=CC(=O)N1CC2(CC(n3nc(N4CCC(N(CC)C5COC5)CC4(C)C)c(-c4c(Cl)c(Cl)cc5[nH]ncc45)c3C)C2)C1 (single isomer, unassigned) [Example 61a, 1-(6-(4-(5,6-dichloro-1H-indazol-4-yl)-3-(4-(ethyl(oxetan-3-yl)amino)-2,2-dimethylpiperidin-1-yl)-5-methyl-1H-pyrazol-1-yl)-2-azaspiro[3.3]heptan-2-yl)prop-2-en-1-one] | 0.881
2 | C=CC(=O)N1CC2(CC(n3nc(N4CCN(C5COC5)CC45CCOC5)c(-c4c(Cl)c(C)cc5[nH]ncc45)c3C)C2)C1 (single isomer, unassigned) [Example 141b, 1-(6-(4-(5-chloro-6-methyl-1H-indazol-4-yl)-5-methyl-3-(9-(oxetan-3-yl)-2-oxa-6,9-diazaspiro[4.5]decan-6-yl)-1H-pyrazol-1-yl)-2-azaspiro[3.3]heptan-2-yl)prop-2-en-1-one] | 0.104
3 | C=CC(=O)N1CC2(CC(n3nc(N4CCC5C(CC(=O)N5C)C4)c(-c4c(Cl)c(C)cc5[nH]ncc45)c3C)C2)C1 (single isomer, unassigned) [Example 38b, 5-(1-(2-acryloyl-2-azaspiro[3.3]heptan-6-yl)-4-(5-chloro-6-methyl-1H-indazol-4-yl)-5-methyl-1H-pyrazol-3-yl)-1-methyloctahydro-2H-pyrrolo[3,2-c]pyridin-2-one] | 0.089
4 | C=CC(=O)N1CC2(CC(n3nc(N4CCn5nccc5C4)c(-c4c(Cl)c(C)cc5[nH]ncc45)c3C)C2)C1 (single isomer, unassigned) [Example 10b, 1-(6-(4-(5-Chloro-6-methyl-1H-indazol-4-yl)-3-(6,7-dihydropyrazolo[1,5-a]pyrazin-5(4H)-yl)-5-methyl-1H-pyrazol-1-yl)-2-azaspiro[3.3]heptan-2-yl)prop-2-en-1-one] | 0.105
5 | C=CC(=O)N1CC2(CC(n3nc(N4CCC(CN5CCOCC5)CC4(C)CC)c(-c4c(Cl)c(C)cc5[nH]ncc45)c3C)C2)C1 (single isomer, unassigned) [Example 222a, 1-(6-(4-(5-chloro-6-methyl-1H-indazol-4-yl)-3-(2-ethyl-2-methyl-4-(morpholinomethyl)piperidin-1-yl)-5-methyl-1H-pyrazol-1-yl)-2-azaspiro[3.3]heptan-2-yl)prop-2-en-1-one] | 1.1
6 | C=CC(=O)N1CC2(CC(n3nc(N4CCN(C(=O)[C@@H]5CCCO5)CC45CCC5)c(-c4c(Cl)c(C)cc5[nH]ncc45)c3C)C2)C1 (single isomer, unassigned) [Example 124b] | 0.02
7 | C=CC(=O)N1CC2(CC(n3nc(N4CCC(CN5CCOCC5)C4(C)C)c(-c4c(Cl)c(Cl)cc5[nH]ncc45)c3C)C2)C1 (single isomer, unassigned) [Example 219a, 1-(6-(4-(5,6-dichloro-1H-indazol-4-yl)-3-(2,2-dimethyl-3-(morpholinomethyl)pyrrolidin-1-yl)-5-methyl-1H-pyrazol-1-yl)-2-azaspiro[3.3]heptan-2-yl)prop-2-en-1-one] | 1.6
8 | C=CC(=O)N1CC2(CC(n3nc(N4CCN(C[C@@H]5COCCO5)C[C@]4(C)COC)c(-c4c(Cl)c(C)cc5[nH]nc(N)c45)c3C)C2)C1 (single isomer, unassigned) [Example 118b] | 0.818
9 | C=CC(=O)N1CC2(CC(n3nc(N4CCN(C5CCOCC5)CC45CCC5)c(-c4c(Cl)c(C)cc5[nH]ncc45)c3C)C2)C1 (single isomer, unassigned) [Example 130a, 1-(6-(4-(5-Chloro-6-methyl-1H-indazol-4-yl)-5-methyl-3-(8-(tetrahydro-2H-pyran-4-yl)-5,8-diazaspiro[3.5]nonan-5-yl)-1H-pyrazol-1-yl)-2-azaspiro[3.3]heptan-2-yl)prop-2-en-1-one] | > 5
10 | C=CC(=O)N1CC2(CC(n3nc(N4CCC5(CC4)CN(C(C)=O)CCO5)c(-c4c(Cl)c(C)cc5[nH]ncc45)c3C)C2)C1 (single isomer, unassigned) [Example 26b, 1-(6-(3-(4-acetyl-1-oxa-4,9-diazaspiro [5.5]undecan-9-yl)-4-(5-chloro-6-methyl-1H-indazol-4-yl)-5-methyl-1H-pyrazol-1-yl)-2-azaspiro[3.3]heptan-2-yl)prop-2-en-1-one] | 0.11
11 | C=CC(=O)N1CC2(CC(n3nc(N4CCC(CN5CCOCC5)CC4(C)COC)c(-c4c(Cl)c(Cl)cc5[nH]ncc45)c3C)C2)C1 (single isomer, unassigned) [Example 221a, 1-(6-(4-(5,6-dichloro-1H-indazol-4-yl)-3-(2-(methoxymethyl)-2-methyl-4-(morpholinomethyl)piperidin-1-yl)-5-methyl-1H-pyrazol-1-yl)-2-azaspiro[3.3]heptan-2-yl)prop-2-en-1-one] | 0.005
12 | C=CC(=O)N1CC2(CC(n3nc(N4CCN(C5COC5)CC45CCCC5)c(-c4c(Cl)c(C)cc5[nH]ncc45)c3C)C2)C1 (single isomer, unassigned) [Example 144b, 1-(6-(4-(5-chloro-6-methyl-1H-indazol-4-yl)-5-methyl-3-(9-(oxetan-3-yl)-6,9-diazaspiro[4.5]decan-6-yl)-1H-pyrazol-1-yl)-2-azaspiro[3.3]heptan-2-yl)prop-2-en-1-one] | 0.01
13 | C=CC(=O)N1CC2(CC(n3nc(N4CCN(C(=O)COC)CC45CCC5)c(-c4c(Cl)c(C)cc5[nH]ncc45)c3C)C2)C1 (single isomer, unassigned) [Example 123b, 1-(6-(4-(5-chloro-6-methyl-1H-indazol-4-yl)-3-(8-(2-methoxyacetyl)-5,8-diazaspiro[3.5]nonan-5-yl)-5-methyl-1H-pyrazol-1-yl)-2-azaspiro[3.3]heptan-2-yl)prop-2-en-1-one] | 0.021
14 | C=CC(=O)N1CC2(CC(n3nc(N4CCN(C5COC5)C[C@]4(C)CC)c(-c4c(Cl)c(C)cc5[nH]ncc45)c3C)C2)C1 (single isomer, unassigned) [Example 133b] | 0.005

More lines, now with the values ahead:

Row | IC50 [µM] | Structure (SMILES)
15 | 0.779 | C=CC(=O)N1CC2(CC(n3nc(N4CC[C@@H](CN5CC6OCCN(C)C6C5)CC4(C)C)c(-c4c(Cl)c(Cl)cc5[nH]ncc45)c3C)C2)C1 (single isomer, unassigned) [Example 259a, 1-(6-(4-(5,6-dichloro-1H-indazol-4-yl)-3-((R)-2,2-dimethyl-4-(((4aR*,7aS*)-4-methylhexahydropyrrolo[3,4-b][1,4]oxazin-6(2H)-yl)methyl)piperidin-1-yl)-5-methyl-1H-pyrazol-1-yl)-2-azaspiro[3.3]heptan-2-yl)prop-2-en-1-one]
16 | > 5 | C=CC(=O)N1CC2(CC(n3nc(N4CCC(CN5C[C@@H]6OCCO[C@@H]6C5)CC4(C)C)c(-c4c(Cl)c(Cl)cc5[nH]ncc45)c3C)C2)C1 (single isomer, unassigned) [Example 231a]
17 | < 0.005 | C=CC(=O)N1CC2(CC(n3nc(N4CC[C@@H](CN5CCN(C6COC6)C6COCC65)CC4(C)C)c(-c4c(Cl)c(Cl)cc5[nH]ncc45)c3C)C2)C1 (single isomer, unassigned) [Example 281b, 1-(6-(4-(5,6-dichloro-1H-indazol-4-yl)-3-((R)-2,2-dimethyl-4-(((4aS*,7aR*)-4-(oxetan-3-yl)hexahydrofuro[3,4-b]pyrazin-1(2H)-yl)methyl)piperidin-1-yl)-5-methyl-1H-pyrazol-1-yl)-2-azaspiro[3.3]heptan-2-yl)prop-2-en-1-one]
18 | 0.006 | C=CC(=O)N1CC2(CC(n3nc(N4CC[C@@H](CN5CC6(C5)CN(C)C(=O)N6C)CC4(C)C)c(-c4c(Cl)c(Cl)cc5[nH]ncc45)c3C)C2)C1 (single isomer, unassigned) [Example 296b]
19 | 1 | C=CC(=O)N1CC2(CC(n3nc(N4CC[C@@H](CN5CCN(S(C)(=O)=O)CC5)CC4(C)C)c(-c4c(Cl)c(Cl)cc5[nH]ncc45)c3C)C2)C1 (single isomer, unassigned) [Example 298a]
20 | 0.008 | C=CC(=O)N1CC2(CC(n3nc(N4CC[C@@H](CN5CC6(CCCN6C6COC6)C5)CC4(C)C)c(-c4c(Cl)c(Cl)cc5[nH]ncc45)c3C)C2)C1 (single isomer, unassigned) [Example 272b]
21 | 0.119 | C=CC(=O)N1CC2(CC(n3nc(N4CCC(CN5CC6COCC6C5)CC4(C)C)c(-c4c(Cl)c(Cl)cc5[nH]ncc45)c3C)C2)C1 (single isomer, unassigned) [Example 226a, 1-(6-(4-(5,6-dichloro-1H-indazol-4-yl)-3-(2,2-dimethyl-4-((tetrahydro-1H-furo[3,4-c]pyrrol-5(3H)-yl)methyl)piperidin-1-yl)-5-methyl-1H-pyrazol-1-yl)-2-azaspiro[3.3]heptan-2-yl)prop-2-en-1-one]
22 | 0.007 | C=CC(=O)N1CC2(CC(n3nc(N4CC[C@@H](CN5CCCC6CN(C)C(=O)C65)CC4(C)C)c(-c4c(Cl)c(Cl)cc5[nH]ncc45)c3C)C2)C1 (single isomer, unassigned) [Example 262b, (4aR*,7aR*)-1-(((R)-1-(1-(2-acryloyl-2-azaspiro[3.3]heptan-6-yl)-4-(5,6-dichloro-1H-indazol-4-yl)-5-methyl-1H-pyrazol-3-yl)-2,2-dimethylpiperidin-4-yl)methyl)-6-methyloctahydro-7H-pyrrolo[3,4-b]pyridin-7-one]
23 | 0.008 | [2H]C1([2H])OC([2H])([2H])C([2H])([2H])N(C[C@@H]2CCN(c3nn(C4CC5(C4)CN(C(=O)C=C)C5)c(C)c3-c3c(Cl)c(Cl)cc4[nH]ncc34)C(C)(C)C2)C1([2H])[2H] (single isomer, unassigned) [Example 283b]
24 | 0.008 | C=CC(=O)N1CC2(CC(n3nc(N4CCC(CN5CCN(C)CC5=O)CC4(C)C)c(-c4c(Cl)c(Cl)cc5[nH]ncc45)c3C)C2)C1 (single isomer, unassigned) [Example 240b, 1-((1-(1-(2-acryloyl-2-azaspiro[3.3]heptan-6-yl)-4-(5,6-dichloro-1H-indazol-4-yl)-5-methyl-1H-pyrazol-3-yl)-2,2-dimethylpiperidin-4-yl)methyl)-4-methylpiperazin-2-one]
25 | 3.3 | C=CC(=O)N1CC2(CC(n3nc(N4CC[C@@H](CN5CCN(C6COC6)C[C@@H]5COC)CC4(C)C)c(-c4c(Cl)c(Cl)cc5[nH]ncc45)c3C)C2)C1 (single isomer, unassigned) [Example 320a]
